Experimental data from the NIST ThermoML archive (doi:10.1016/j.jct.2017.03.006).

Test: xn = mol fraction of the nth substance listed
Settings: 273.15 K, Liquid, Vibrating tube method

Cc1ccc(C)c(C)c1 [1,2,4-trimethylbenzene] + CCCCO
mass density [kg/m3]
Settings	x2 = 0	x2 = 0.1005	x2 = 0.2261	x2 = 0.2999	x2 = 0.3966	x2 = 0.5289	x2 = 0.6367	x2 = 0.7249	x2 = 0.7977	x2 = 0.9131
100 kPa	891.7	886.7	880.3	876.4	870.8	862.9	855.6	849.2	–	833.3
1000 kPa	892.3	887.1	880.5	876.7	871.1	863.2	855.9	849.5	843.7	833.7
5000 kPa	894.6	889.5	883	879.2	873.6	865.7	858.5	852.1	846.3	836.3
10000 kPa	897.4	892.4	885.9	882.1	876.6	868.8	861.5	855.2	849.4	839.4
20000 kPa	902.8	897.9	891.4	887.7	882.2	874.4	867.2	860.8	855.2	845.3
30000 kPa	908	903.1	896.7	893	887.5	879.7	872.6	866.3	860.6	850.8
40000 kPa	912.9	908	901.7	897.9	892.5	884.8	877.7	871.4	865.8	856
50000 kPa	917.5	912.6	906.3	902.7	897.3	889.6	882.5	876.2	870.6	860.9
60000 kPa	921.9	–	–	–	–	–	–	–	–	–
